{
  "source": "paper PMC10571957",
  "about": "“αV-Integrin-Dependent Inhibition of Glioblastoma Cell Migration, Invasion and Vasculogenic Mimicry by the uPAcyclin Decapeptide” (Cancers, 2023)",
  "key": {"U87-MG cells [1]": {"test_system": "U87-MG cells", "assay": "Cell viability/proliferation (Trypan blue, MTT), U87-MG", "type": "cell-based, human", "details": "1 nM or 100 nM, 72–96 h", "protocol": "Cell viability was tested in DMEM/10% FBS, in the presence of 1 nM or 100 nM uPAcyclin, either by Trypan blue exclusion or by thiazolyl blue tetrazolium bromide (MTT) assays, as specified in the figure legends. For the Trypan blue assay, 4 × 10^4 U87-MG, U251-MG, U138-MG, and C6 cells/sample were grown in 12-well plates, and followed for 24, 48 and 72 h. As a negative control, the cells were grown in a serum-free medium. Then, the cells were detached, stained with a 0.2% (w/v) Trypan blue solution, counted using a Burker chamber (T0 = 100%), and reported as number of viable cells/total.\nFor the MTT assay, 5 × 10^3 U87-MG and C6 cells/well were grown in 96-well plates for 24 h and tested as previously described. Briefly, MTT (Invitrogen-Life Technologies, Eugene, OR, USA) 5 mg/mL in a PBS solution was added to wells at a 10% final concentration, and incubated for 3 h at 37 °C, followed by the addition of stop solution (100 µL of DMSO/well) for 1 h at room temperature. Then, the optical densities were measured at 495 nm using the Microplate Reader (Synergy HT, Bio-Tek, Winoosky, VT, USA). The cell viability rate was calculated as a percentage by reporting the mean absorbance of treated groups to control groups, as follows: Cell viability rate (%) = (Atreated group/Acontrol group) × 100."}, "[2]": {"test_system": "U138-MG cells (αV integrin)", "assay": "FITC-uPAcyclin receptor binding/competition, U138-MG", "parameters": "species or system human", "details": "unlabeled uPAcyclin vs FITC-uPAcyclin, 4 °C", "protocol": "The U87-MG, U251-MG, and U138-MG cell lines were harvested and acid-treated, as described. Then, 2 × 10^6 cells/sample were exposed for 30 min at 4 °C to uPAcyclin or S-uPAcyclin at the indicated concentrations, or with the following antibodies: VNR147 monoclonal anti-αV integrin (Chemicon Int. Inc., Temecula, CA, USA), polyclonal anti-αV (Millipore, Burlington, MA, USA), monoclonal anti-α2 (Chemicon Int. Inc., Temecula, CA, USA), polyclonal anti-actin (Sigma-Aldrich, St. Louis, MO, USA), monoclonal anti-GAPDH (Abcam, Cambridge, UK), and purified vitronectin (VN, Corning, Glendale, AZ, USA). The cells were subsequently incubated with 50 nM FITC-uPAcyclin for 2 h at 4 °C, as described. At the end of incubation, the cells were washed and the cell surface-associated fluorescence was determined using a fluorimeter (VICTOR^TM X3-PerkinElmer, Waltham, MA, USA). All binding assays were performed three times, with duplicate samples, and analyzed as described in Section 2.11.\nFigure 2 αV expression of U87-MG, U251-MG, and U138-MG GBM cells and specific binding of FITC-uPAcyclin. […] At the end of the incubation, the unbound material was washed and cell-associated FITC-uPAcyclin was quantitated by a fluorimeter. The net value of cell-surface-associated fluorescence, corresponding to the specific binding, is shown. […]"}, "U87-MG cells [3]": {"test_system": "U87-MG cells", "assay": "Boyden chamber Matrigel invasion, U87-MG", "type": "cell-based, human", "details": "for invasion, % basal, average expt 1: mean of expt 1", "protocol": "The migration and invasion assays were performed using Boyden chambers and 8 µm pore size PVP-free filters coated with 50 µg/mL of collagen type VI (Sigma), as previously described. For the invasion assays, collagen-coated filters were further coated with 50 µg/mL Matrigel^TM (Sigma). Briefly, 11 × 10^4 U87-MG, 4 × 10^4 U251-MG, or 4 × 10^4 U138-MG/sample were pre-treated for 40 min at 37 °C with the indicated effectors. Then, the cells were allowed to migrate for 3 h or to invade for 5 h at 37 °C toward 5% FBS in DMEM/0.1% BSA. At the end of both assays, the cells on the lower filter surface were fixed, stained with haematoxylin, and counted under an optical microscope (Zeiss Axiophot, Carl Zeiss, Milan, Italy) at 20× magnification. […] The migrated or invaded cells were reported as percentage of basal migration or invasion in the presence of DMEM/0.1% BSA, taken as 100%, and analyzed as reported in Section 2.11.\nFigure 4 Effect of uPAcyclin on matrix invasion of U87-MG, U251-MG, and U138-MG GBM cells. Quantitative analysis of U87-MG (A), U251-MG (B), and U138-MG (C) invasion. […] Data are expressed as in the legend to Figure 3. Results are expressed as percentages with respect to the basal invasion, considered as 100% (* p-value < 0.05; ** p-value < 0.005; *** p-value < 0.001)."}, "[4]": {"details": "100 nM, 5% FBS, 5 h, expt 1, duplicates"}, "[5]": {"details": "100 nM, 5% FBS, 5 h, expt 2, duplicates"}, "[6]": {"details": "100 nM, 5% FBS, 5 h, expt 3, duplicates"}, "[7]": {"details": "1 µM, 5% FBS, 5 h, expt 1, duplicates"}},
  "note": "Where “and” joins values, the source holds several entries; their conditions need not be identical. Equal values may be shown once.",
  "data": [
    {"substance": "Ac-K^1P[ESPPEELK^10]-NH2 (sidechain bridge or staple) [uPAcyclin]", "values": [
      {"measurement": "proliferation/viability", "setting": "U87-MG cells [1]", "result": "unaffected by uPAcyclin, regardless of the concentration employed"},
      {"measurement": "Kdapp", "setting": "[2]", "result": "low nanomolar range"},
      {"measurement": "reduction in invasion", "setting": "U87-MG cells [3]; 100 nM, U87-MG, 5% FBS, 5 h", "result": "50–60%"},
      {"measurement": "invaded cell number/field", "setting": "U87-MG cells [3]; [4]", "result": "29 cell number/field and 28 cell number/field"},
      {"measurement": "invasion, % of basal", "setting": "U87-MG cells [3]; [4]", "result": "111% and 108%"},
      {"measurement": "invaded cell number/field", "setting": "U87-MG cells [3]; [5]", "result": "28 cell number/field and 29 cell number/field"},
      {"measurement": "invasion, % of basal", "setting": "U87-MG cells [3]; [5]", "result": "117% and 121%"},
      {"measurement": "invaded cell number/field", "setting": "U87-MG cells [3]; [6]", "result": "34 cell number/field and 33 cell number/field"},
      {"measurement": "invasion, % of basal", "setting": "U87-MG cells [3]; [6]", "result": "131% and 127%"},
      {"measurement": "Invasion, %, average 3 expts", "setting": "U87-MG cells [3]; 100 nM, mean of 3 expts", "result": 119, "unit": "%"},
      {"measurement": "invasion, % basal, average expt 1", "setting": "U87-MG cells [3]; 100 nM", "result": 110, "unit": "%"},
      {"measurement": "invasion, % basal, average expt 2", "setting": "U87-MG cells [3]; 100 nM, mean of expt 2", "result": 119, "unit": "%"},
      {"measurement": "invasion, % basal, average expt 3", "setting": "U87-MG cells [3]; 100 nM, mean of expt 3", "result": 129, "unit": "%"},
      {"measurement": "invasion, % of basal, T-test list", "setting": "U87-MG cells [3]; 100 nM, single replicates of 3 expts", "result": "111 and 108 and 117 and 121 and 131 and 127"},
      {"measurement": "invasion, in words", "setting": "U87-MG cells [3]; 1 µM, U87-MG, 5% FBS, 5 h", "result": "reduced invasion to basal levels"},
      {"measurement": "invaded cell number/field", "setting": "U87-MG cells [3]; [7]", "result": "24 cell number/field and 26 cell number/field"},
      {"measurement": "invasion, % of basal", "setting": "U87-MG cells [3]; [7]", "result": "92% and 100%"},
      {"measurement": "Invasion, %, average 3 expts", "setting": "U87-MG cells [3]; 1 µM, headed average 3 expts (only expt 1 has data)", "result": 96, "unit": "%"},
      {"measurement": "invasion, % basal, average expt 1", "setting": "U87-MG cells [3]; 1 µM", "result": 96, "unit": "%"},
      {"measurement": "invasion, % of basal, T-test list", "setting": "U87-MG cells [3]; printed 10 µM, single replicates", "result": "92 and 100"}
    ]}
  ]
}
